In patent US10501470B2, “Use of asarinin in preparation of medicines for treating various coughs” (priority 2017, dated 2019):

Tested on: cough of guinea pigs induced by citric acid
Assay: citric acid induced guinea pig cough model
Format: in vivo, Hartley guinea pigs
Details: for Cough Time (Number of Times) / Cough Incubation Period: once daily for 3 days, x±s, n=8; for Cough Time (Number of Times): cough times within 6 min after citric acid atomization; for Cough Incubation Period: within 6 min after citric acid atomization; for Antitussive Ratio: (N(blank control)-N(administration group))/N(blank control)x100%
Description: Experimental animals: 250-350 g of common level Hartley guinea pigs, including half males and half females are provided by Guangdong Medical Experimental Animal Center, wherein the number of the animal certificate is SCXK (Yue) 2008-0002.
Reagents and instruments: citric acid monohydrate (Guangzhou Chemical Reagent Factory, batch number: 20121001-2), wherein 0.8 M of citric acid solution is prepared by adding normal saline into citric acid monohydrate when in use; an animal noninvasive Buxco lung function detecting system (Buxco Company of America); an Aeroneb Pro atomizer (Aerogen (Ireland) Co., Ltd.); and a gavage needle (Guangdong Medical Experimental Animal Center).
A citric acid induced guinea pig cough model is adopted for efficacy evaluation. 112 Hartley guinea pigs are put in a 6 L plethysmograph of the animal noninvasive Buxco lung function detecting system one by one; the air velocity of a drift indicator is 2.5 L/min; 0.8 M of atomized aerosol of citric acid ultrapure aqueous solution is led for 1 min by the Aeroneb Pro atomizer; the average diameter of the atomized granules is […]; observation is carried out for 5 min; the sound of cough is recorded and amplified by an indoor microphone; sound waves are analyzed by Biosystem XA software; and computer software is used for processing sound data and recording cough situations. A trained observer observes whether a cough response exists or not, records the cough times within 6 min since atomization and selects the guinea pigs with more than 10 cough times as qualified animals for tests.
56 Hartley guinea pigs qualified by screening, including half males and half females, are randomly divided into 7 groups; 1 mL/100 g of normal saline is provided to a blank control group; a corresponding solvent (Tween-80 aqueous solution with 5% volume concentration) with equal volume is provided to a solvent group; 30 mg/kg of codeine phosphate with equal volume is provided to a positive drug group, asarinin (30 mg/kg, 60 mg/kg and 120 mg/kg of samples in embodiment 1) and total volatile oil of asarum (200 mg/kg of samples in embodiment 1) with equal volume are provided to each of administration groups; administration is carried out one time every day for successive 3 days. A citric acid atomization simulation test is carried out in the animal noninvasive Buxco lung function detecting system within 2 h after last administration (atomization conditions are described above); the cough times (N) and the cough incubation periods within 6 min are recorded; and the antitussive ratios of all the administration groups are calculated by a formula: antitussive ratio=(N(blank control)−N(administration group))/N(blank control)×100%.
The data are expressed by x±s, and a one-way analysis of variance is carried out on parameters of all the groups by IBM SPSS Statistics 19.0 software.

Row | SMILES | Cough Time (Number of Times) (30 mg/kg) | Cough Incubation Period (30 mg/kg) | Antitussive Ratio (30 mg/kg) | Cough Time (Number of Times) (60 mg/kg) | Cough Incubation Period (60 mg/kg) | Antitussive Ratio (60 mg/kg) | Cough Time (Number of Times) (120 mg/kg) | Cough Incubation Period (120 mg/kg) | Antitussive Ratio (120 mg/kg)
1 | c1cc2c(cc1C1OCC3C1CO[C@H]3c1ccc3c(c1)OCO3)OCO2 (stereo in doubt) [Asarinin, 5,5′-[(1R,3aR,4S,6aR)-tetrahydro-1H,3H-furo[3,4-c]furan-1,4-diyl]bis-1,3-Benzodioxole] | 16.3 ± 2.2 Number of Times | 98.5 ± 9.5 S | 39.2% | 13.2 ± 2.1 Number of Times | 94.2 ± 13.6 S | 50.7% | 12.6 ± 1.9 Number of Times | 127.3 ± 24.8 S | 53.0%
2 | COc1ccc2c3c1O[C@H]1[C@@H](O)C=C[C@H]4[C@@H](C2)N(C)CC[C@@]341 [Codeine Phosphate, reference compound] | 12.0 ± 2.3 Number of Times | 130.0 ± 32.4 S | 55.2% |  |  |  |  |  | 
